Test results reported in US3984432A, “Color photographic recording material” (priority 1973, dated 1976).

assay: Solubility of coupling agents in tricresyl phosphate (oil) at 20° C (Table A); format: physicochemical; conditions: not given

Solubility in g per g of tricresyl phosphate | SMILES
1 g per g of tricresyl phosphate | CCCCCCCCCCOc1cccc(OCCC(=O)Nc2cccc(NC(=O)CC(=O)c3ccccc3C)c2)c1 [DT-OS 2,039,970]
0.4 g per g of tricresyl phosphate | CCC(Oc1ccc(C(C)(C)CC)cc1C(C)(C)CC)C(=O)Nc1cc(Cl)c(C)c(Cl)c1O (stereo not drawn) [US-PS 2,801,171 Coupling agent No. (4)]
0.7 g per g of tricresyl phosphate | CCCCCCCCCCCCCCCc1cccc(OC(CC)C(=O)Nc2cc(Cl)c(C)c(Cl)c2O)c1 (stereo not drawn)
0.3 g per g of tricresyl phosphate | CCCCCCCCCCCCCCCc1cccc(OC(CC)C(=O)Nc2cccc(C(=O)NC3=NN(c4c(Cl)cc(Cl)cc4Cl)C(=O)C3)c2)c1 (stereo not drawn)
1.2 g per g of tricresyl phosphate | CCCCCCCCCCCCCCCCCCNS(=O)(=O)c1ccc(N(CCCC)CCCC)c(NC(=O)CC(=O)c2ccccc2)c1 [DT-OS 1,522,414]
0.7 g per g of tricresyl phosphate | CCCCCCCCCCCCOc1cccc(OC(CC)C(=O)Nc2cc(Cl)c(C)c(Cl)c2O)c1 (stereo not drawn)
> 5 g per g of tricresyl phosphate | CCCCC(CC)COP(=O)(CCCNC(=O)c1ccc(Cl)c(NC(=O)CC(=O)C(C)(C)C)c1)OCC(CC)CCCC (stereo not drawn) [(135)]
0.6 g per g of tricresyl phosphate | CCC(C)(C)c1ccc(OCC(=O)Nc2cccc(C(=O)NC3=NN(c4c(Cl)cc(Cl)cc4Cl)C(=O)C3)c2)c(C(C)(C)CC)c1
0.4 g per g of tricresyl phosphate | CCCCCCCCCCCCOc1cccc(OC(CC)C(=O)Nc2cccc(C(=O)NC3=NN(c4c(Cl)cc(Cl)cc4Cl)C(=O)C3)c2)c1 (stereo not drawn)

SMILES | Solubility in g per g of tricresyl phosphate
CCCCOP(=O)(CC(=O)Nc1cccc(NC(=O)CC(=O)c2ccccc2)c1)OCCCC [(109)] | > 5 g per g of tricresyl phosphate
COc1ccc(C(=O)NCCCP(=O)(OC(C)C)OC(C)C)cc1NC(=O)CC(=O)c1ccccc1Cl [(128)] | > 5 g per g of tricresyl phosphate

assay: Absorption maximum after colour development in a photographic silver halide layer according to Use Example I; format: physicochemical; conditions: not given
Procedure, shortened: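 Coupling agent dispersed in tricresyl phosphate with gelatine at pH 6.5, mixed with silver bromide emulsion and hardener, cast on glass plates and dried at 32° C. Strips exposed to 500 Lux/cm^2 under a step wedge for 2 seconds, then processed at 24° C; absorption maximum read after colour development.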

SMILES | Abs.max. (single maximum)
CCCCOP(=O)(CC(=O)Nc1cccc(NC(=O)CC(=O)c2ccccc2)c1)OCCCC [(109)] | 442 nm
CCCCC(CC)COP(=O)(CCCNC(=O)c1ccc(Cl)c(NC(=O)CC(=O)C(C)(C)C)c1)OCC(CC)CCCC (stereo not drawn) [(135)] | 445 nm
CCOP(=O)(CC(=O)Nc1cccc(NC(=O)CC(=O)c2ccccc2)c1)OCC [(106)] | 442 nm
CCCCOP(=O)(Cc1ccc(CP(=O)(OCCCC)OCCCC)c(NC(=O)c2ccc(OC)c(NC(=O)CC(=O)c3ccc(C(C)(C)C)cc3)c2)c1)OCCCC [(136)] | 440 nm
CCCCOP(=O)(Cc1ccc(CP(=O)(OCCCC)OCCCC)c(NC(=O)c2ccc(C)c(NC(=O)CC(=O)c3ccccc3Cl)c2)c1)OCCCC [(143)] | 440 nm
CCCCOP(=O)(Cc1ccc(CP(=O)(OCCCC)OCCCC)c(NC(=O)c2ccc(OC)c(NC(=O)CC(=O)c3ccccc3OCC)c2)c1)OCCCC [(137)] | 425 nm
CCCCOP(=O)(CCCOc1cc(OCCCP(=O)(OCCCC)OCCCC)cc(C(=O)Nc2ccc(NC(=O)CC(=O)C(C)(C)C)cc2)c1)OCCCC [(114)] | 431 nm
COc1ccc(C(=O)CC(=O)Nc2ccc(OP(=O)(Oc3ccccc3)C(C)(C)C)cc2)cc1 (stereo not drawn) [(130)] | 437 nm
CCCCOP(=O)(CCCOc1cc(OCCCP(=O)(OCCCC)OCCCC)cc(C(=O)Nc2ccc(Cl)c(NC(=O)CC(=O)C(C)(C)C)c2)c1)OCCCC [(116)] | 444 nm
CCCCOP(=O)(CCCc1ccc(NC(=O)C(Cl)C(=O)c2ccccc2)cc1)OCCCC (stereo not drawn) [(147)] | 436 nm
COc1ccc(C(=O)NCCCP(=O)(OC(C)C)OC(C)C)cc1NC(=O)CC(=O)c1ccccc1Cl [(128)] | 447 nm
CCCCOP(=O)(CCCOc1cc(OCCCP(=O)(OCCCC)OCCCC)cc(C(=O)Nc2cc(Cl)c(C)c(Cl)c2O)c1)OCCCC [(701)] | 662 nm

same assay, conditions: pyrazolone coupling agents

SMILES | Abs.max., first of two maxima (subsidiary maximum) | Abs.max., second of two maxima (absorption maximum)
CCOP(=O)(CCCOc1cc(OCCCP(=O)(OCC)OCC)cc(C(=O)Nc2cccc(C(=O)NC3=NN(c4c(Cl)cc(Cl)cc4Cl)C(=O)C3)c2)c1)OCC [(216)] | 432 nm | 546 nm
CCOP(=O)(CCCOc1cccc(C(=O)Nc2ccc(NC3=NN(c4ccccc4)C(=O)C3)cc2)c1)OCC [(416)] | 426 nm | 528 nm
CCOP(=O)(CCCOc1cc(OCCCP(=O)(OCC)OCC)cc(C(=O)Nc2cccc(C(=O)NC3=NN(c4ccccc4)C(=O)C3)c2)c1)OCC [(228)] | 438 nm | 533 nm
CCCCOP(=O)(CCCOc1cc(OCCCP(=O)(OCCCC)OCCCC)cc(C(=O)Nc2cccc(C(=O)NC3=NN(c4c(Cl)cc(Cl)cc4OC)C(=O)C3)c2)c1)OCCCC [(265)] | 436 nm | 537 nm
CCOP(=O)(CCCc1ccc(NC2=NN(c3c(Cl)cc(Cl)cc3Cl)C(=O)C2)cc1)OCC [(408)] | 426 nm | 530 nm
CCCCC(CC)COP(=O)(CCCOc1cc(OCCCP(=O)(OCC(CC)CCCC)OCC(CC)CCCC)cc(C(=O)Nc2ccc(C(=O)NC3=NN(c4c(Cl)cc(Cl)cc4Cl)C(=O)C3)cc2)c1)OCC(CC)CCCC (stereo not drawn) [(234)] | 434 nm | 540 nm
CCCCOP(=O)(CCCOc1cccc(NC2=NN(c3cccc(Cl)c3)C(=O)C2)c1)OCCCC [(411)] | 428 nm | 532 nm
CCOP(=O)(CCCCCOc1cc(OCCCCCP(=O)(OCC)OCC)cc(C(=O)Nc2cccc(C(=O)NC3=NN(c4ccccc4)C(=O)C3)c2)c1)OCC [(226)] | 439 nm | 534 nm
CC(C)OP(=O)(CCCCCOc1cccc(C(=O)Nc2cccc(C(=O)NC3=NN(c4ccccc4)C(=O)C3)c2)c1)OC(C)C [(246)] | 440 nm | 532 nm
CCOP(=O)(CCCOc1ccc(NC2=NN(c3cccc(Cl)c3)C(=O)C2)cc1)OCC [(406)] | 425 nm | 530 nm
CCOP(=O)(CCCOc1cccc(C(=O)Nc2cccc(NC3=NN(c4c(Cl)cc(Cl)cc4Cl)C(=O)C3)c2)c1)OCC [(415)] | 426 nm | 532 nm
CCOP(=O)(CCCOc1ccc(C(=O)NC2=NN(c3c(Cl)cc(Cl)cc3Cl)C(=O)C2)cc1)OCC [(204)] | 434 nm | 534 nm
CCCCC(CC)COP(=O)(CCCOc1cccc(C(=O)Nc2cccc(C(=O)NC3=NN(c4c(C)cc(C)cc4Cl)C(=O)C3)c2)c1)OCC(CC)CCCC (stereo not drawn) [(262)] | 440 nm | 536 nm
CCCCC(CC)COP(=O)(CCCOc1cccc(C(=O)Nc2cccc(NC3=NN(c4ccccc4)C(=O)C3)c2)c1)OCC(CC)CCCC (stereo not drawn) [(421)] | 430 nm | 528 nm
CCCCOP(=O)(CCCOc1cc(OCCCP(=O)(OCCCC)OCCCC)cc(C(=O)Nc2cccc(C(=O)NC3=NN(c4c(C)cc(Cl)cc4Cl)C(=O)C3)c2)c1)OCCCC [(272)] | 438 nm | 540 nm
CCOP(=O)(CCCOc1cccc(C(=O)NC2=NN(c3c(Cl)cc(Cl)cc3Cl)C(=O)C2)c1)OCC [(202)] | 434 nm | 535 nm
CCOP(=O)(CCCOc1cccc(C(=O)Nc2c(C)cc(C)c(N3N=C(Nc4ccc(Cl)cc4)CC3=O)c2C)c1)OCC [(425)] | 430 nm | 530 nm
CCOP(=O)(CCCOc1cccc(NC2=NN(c3c(Cl)cc(Cl)cc3Cl)C(=O)C2)c1)OCC [(403)] | 424 nm | 526 nm
CCCCOP(=O)(CCCOc1cccc(C(=O)Nc2cccc(NC3=NN(c4c(Cl)cc(Cl)cc4Cl)C(=O)C3)c2)c1)OCCCC [(419)] | 427 nm | 532 nm
CCOP(=O)(CCCOc1ccc(C(=O)Nc2cccc(C(=O)NC3=NN(c4c(Cl)cc(Cl)cc4Cl)C(=O)C3)c2)cc1)OCC [(206)] | 434 nm | 542 nm
CCCCOP(=O)(CCCOc1cccc(C(=O)Nc2cccc(C(=O)NC3=NN(c4ccc(S(C)(=O)=O)cc4)C(=O)C3)c2)c1)OCCCC [(275)] | 440 nm | 538 nm
CCCCC(CC)COP(=O)(CCCOc1cccc(OCC(=O)Nc2cccc(C(=O)NC3=NN(c4c(C)cc(C)cc4Cl)C(=O)C3)c2)c1)OCC(CC)CCCC (stereo not drawn) [(271)] | 440 nm | 532 nm
CCCCOP(=O)(CCCOc1cc(OCCCP(=O)(OCCCC)OCCCC)cc(C(=O)NC2=NN(c3c(C)c(Cl)c(OC)c(Cl)c3Cl)C(=O)C2)c1)OCCCC [(254)] | 438 nm | 540 nm
CCCCOP(=O)(CCCOc1cccc(C(=O)Nc2c(C)cc(C)c(N3N=C(Nc4ccc(Cl)cc4)CC3=O)c2C)c1)OCCCC [(426)] | 430 nm | 528 nm
CCCCOP(=O)(CCCOc1cc(OCCCP(=O)(OCCCC)OCCCC)cc(C(=O)Nc2cccc(NC3=NN(c4ccc(S(C)(=O)=O)cc4)C(=O)C3)c2)c1)OCCCC [(430)] | 430 nm | 540 nm
CCCCC(CC)COP(=O)(CCCOc1cccc(C(=O)Nc2cccc(C(=O)NC3=NN(c4c(C)cc(OC)cc4Cl)C(=O)C3)c2)c1)OCC(CC)CCCC (stereo not drawn) [(264)] | 440 nm | 536 nm
